{"source": "patent US8008260B2", "about": "“Methods of protecting against apoptosis using lipopeptides” (Cleveland Clinic Foundation, priority 2005, dated 2011)", "key": {"ICR mice": {"test_system": "ICR mice", "assay": "Radioprotection against total body gamma irradiation (TBI), 30-day survival", "format": "in vivo", "conditions": "for mice rescued (30-day survival): one experiment", "description": "CBLB601, a R-Pam2-lipopeptide with the peptide moiety consisting of C-SKKKK (SEQ ID NO: 8), was selected for more detailed characterization as a radioprotector based upon its ability to activate NF-κB and preliminary in vivo data on radioprotection in NIH-SWISS mice (see Example 2). The objectives of this study were to determine the optimal dose, route of administration, and time of administration of CBLB601 to serve as a protector. ICR female mice of 10-15 weeks of age were used, with 10-15 animals per group or condition.\nThe optimal intraperitoneal administration schedule of CBLB601 was determined by injecting the compound at different times prior to irradiation. […] Therefore, all of the optimization experiments were performed with 10 Gy of total body irradiation (TBI). A dose of 3 μg of BCLB601/mouse (1/10 NOAEL) was chosen as the starting dose. Thus, 3 μg of CBLB601 was injected i.p. into ICR mice at 0.5 h, 1 h, 6 h, and 24 h or 1 h, 24 h, 48 h, 72 h, 96 h prior to 10 Gy of TBI (as described in Example 1). […] Injection of CBLB601 24 hrs before irradiation clearly yielded the best radioprotection (90-100% 30-day survival). When the compound was administered 48 hrs before irradiation, the radioprotection was ˜30%. Administration of CBLB601 at 1 hr prior to irradiation produced inconsistent results ranging from 80% protection in one experiment (FIG. 5B) to almost no protection (20%) in another experiment (FIG. 5A).\nTo determine the optimal radioprotective dose of CBLB601, the timing of injection and level of irradiation were kept constant, while the dose of CBLB601 was varied. ICR mice were injected i.p. with 1, 3, 10, 20, or 30 μg of CBLB601/mouse or 0.1, 0.3, 1, 3, 10, or […] 24 hrs prior to irradiation (10 Gy of TBI), and their survival was monitored for 30 days. The best protective dose was 3 μg/mouse, which supported a survival of 100% (FIGS. 6 A and B). […] Thus, the optimal protective dose of CBLB601 was determined to be 3 μg/mouse.\nTo determine the level of radiation that was protected by CBLB601, radioprotectant-treated and control mice were exposed to increasing levels of TBI. Groups of ICR mice were injected i.p. with either 3 μg CBLB601/mouse or PBS, and then 24 h later they received 10, 11, 12, 13, 14, and 15 Gy doses of TBI. Survival was recorded over 30 days. […] All of the mice irradiated with 10-11 Gy of TBI died between days 12-14 post irradiation, which was typical for death due to hematopoietic failure. All of the mice that received 14-15 Gy of TBI died between days 7-9 post irradiation, which was typical for mortality due to radiation-induced intestinal damage. Mice that were irradiated with 12-13 Gy of TBI died at intermediate times, which was typical for a mixed etiology of radiation-induced mortality. […] To reach a statistically significant 10% difference between control and CBLB601-treated mice, experimental groups of at least 50 mice must be used. Although CBLB601 rescued 100% of mice from 10 Gy of TBI, its protection at 11 Gy of TBI was only 20%. […] This may be indicative of a combined toxicity of the drug and the irradiation.\nCBLB601 was administered intramuscularly to determine the optimal route of administration of this compound (especially since this would be the preferred route of administration for humans). […] In another experiment, increasing doses of CBLB601 administered i.m. were tested against 10, 11, and 12 Gy doses of […] (FIG. 9). […] A summary of the dose-dependency of the radioprotection of […] administered i.p. or i.m. 24 h prior to 10 Gy of TBI is shown in FIG. 10.\nThe optimal schedule of intramuscular administration of CBLB601 was determined by varying the time between drug delivery and irradiation. ICR mice were injected i.m. with 3 μg of CBLB601/mouse 24 h, 6 h, 3 h, and 1 h prior to TBI and +1 h, +3 h after TBI (FIG. 12A), as well as 48 h, 36 h, 24 h, 12 h, and 6 h prior to TBI (FIG. 12B). […]"}, "[1]": {"assay": "Solubility of the lipopeptides"}, "[2]": {"conditions": "10 μg/mouse i.p. 24 hrs before 10 Gy TBI"}}, "note": "Several values for one entry are separate records, joined by “and”; a condition that tells them apart may be missing. Equal entries are not always repeated. Peptide text beside a SMILES is read from it. * marks the point of attachment. Propyl(2R-PamO,3-PamO) = CCCCCCCCCCCCCCCC(=O)OC[C@H](C*)OC(=O)CCCCCCCCCCCCCCC"}
{"smiles": "CCCCCCCCCCCCCCCC(=O)OC[C@H](CSC[C@H](N)C(=O)N[C@@H](CO)C(=O)N[C@@H](CCCCN)C(=O)N[C@@H](CCCCN)C(=O)N[C@@H](CCCCN)C(=O)N[C@@H](CCCCN)C(=O)O)OC(=O)CCCCCCCCCCCCCCC", "note": "[CBLB601, R-PAM2C-SKKKK] (H-C(Propyl(2R-PamO,3-PamO))SKKKK-OH)", "values": [{"measurement": "mice rescued (30-day survival)", "setting": "ICR mice; 1 μg/mouse i.p. 24 hrs before 10 Gy TBI", "value": 90, "unit": "%"}, {"measurement": "protective effect", "setting": "ICR mice; 3 μg/mouse i.m. after (1 h and 3 h) 10 Gy TBI", "value": "no protective effect"}, {"measurement": "optimal time for intramuscular delivery prior to TBI", "setting": "ICR mice; 3 μg/mouse i.m., 10 Gy TBI", "value": 24, "unit": "h"}, {"measurement": "radioprotection (30-day survival)", "setting": "ICR mice; 3 μg/mouse i.p. 0.5 h before 10 Gy TBI", "value": 10, "unit": "%"}, {"measurement": "radioprotection (30-day survival)", "setting": "ICR mice; 3 μg/mouse i.p. 6 h before 10 Gy TBI", "value": 20, "unit": "%"}, {"measurement": "kinetics of death versus PBS controls", "setting": "ICR mice; 3 μg/mouse i.p. 24 h before 11, 12 and 13 Gy", "value": "died with an accelerated kinetics"}, {"measurement": "protection (30-day survival)", "setting": "ICR mice; 3 μg/mouse i.p. 24 h before 11 Gy TBI", "value": 20, "unit": "%"}, {"measurement": "protection from irradiation", "setting": "ICR mice; 3 μg/mouse i.p. 24 h before TBI higher than 11 Gy (12-15 Gy)", "value": "no protection"}, {"measurement": "30-day survival", "setting": "ICR mice; 3 μg/mouse i.p. 24 hrs before 10 Gy TBI", "value": "90-100% and 100%"}, {"measurement": "radioprotection (30-day survival)", "setting": "ICR mice; 3 μg/mouse i.p. 48 hrs before 10 Gy TBI", "value": "~30", "unit": "%"}, {"measurement": "radioprotection", "setting": "ICR mice; 3 μg/mouse i.p. 72 h before 10 Gy TBI", "value": "No radioprotection"}, {"measurement": "radioprotection", "setting": "ICR mice; 3 μg/mouse i.p. 96 h before 10 Gy TBI", "value": "No radioprotection"}, {"measurement": "combined toxicity with irradiation", "setting": "ICR mice; 10 μg/mouse i.m. 24 hr before 10 Gy TBI", "value": "no sign of combined toxicity"}, {"measurement": "combined toxicity with irradiation", "setting": "ICR mice; [2]", "value": "Some signs of this combined toxicity were detectable"}, {"measurement": "mice rescued (30-day survival)", "setting": "ICR mice; [2]", "value": 90, "unit": "%"}, {"measurement": "mortality in combination with irradiation versus PBS", "setting": "ICR mice; 20 μg/mouse i.p. 24 hrs before 10 Gy TBI", "value": "accelerated mortality"}, {"measurement": "mortality in combination with irradiation versus PBS", "setting": "ICR mice; 30 μg/mouse i.p. 24 hrs before 10 Gy TBI", "value": "accelerated mortality"}, {"measurement": "radioprotection", "setting": "ICR mice; 1, 3 or 10 μg/mouse i.m. 24 hr before 10 Gy TBI", "value": "imparted radioprotection"}, {"measurement": "mortality shift at higher doses", "setting": "ICR mice; 10, 30 μg i.m. prior to 10 Gy TBI", "value": "non-statistically significant shift to increased mortality"}, {"measurement": "combined toxicity with irradiation", "setting": "ICR mice; 10 and 30 μg/mouse i.m. 1 h after 10 Gy TBI", "value": "increased levels of combined toxicity"}, {"measurement": "therapeutic index (toxic dose/effective dose)", "setting": "ICR mice; i.m. administration", "value": "10-30"}, {"measurement": "optimal dose", "setting": "ICR mice; i.m. and i.p., 24 h prior to 10 Gy TBI", "value": 3, "unit": "μg/mouse"}, {"measurement": "effective dose per body weight", "setting": "ICR mice; i.m. delivery, 24 h prior to 10 Gy TBI", "value": "0.06 to 0.115", "unit": "mg/kg"}, {"measurement": "radioprotective dose relative to NOAEL (fold lower)", "setting": "ICR mice; i.p.", "value": "10-30 fold"}, {"measurement": "optimal protective dose", "setting": "ICR mice; i.p. 24 hrs before 10 Gy TBI", "value": 3, "unit": "μg/mouse"}, {"measurement": "therapeutic index (toxic dose/effective dose)", "setting": "ICR mice; i.p. administration", "value": "3-10"}, {"measurement": "effective dose per body weight", "setting": "ICR mice; i.p. delivery, 24 h prior to 10 Gy TBI", "value": "0.09 to 0.11", "unit": "mg/kg"}, {"measurement": "therapeutic index", "setting": "ICR mice; summary of Example 5", "value": 3}, {"measurement": "Solubility", "setting": "[1]", "value": "Excellent"}]}
